For experiment [1], the system named is cellular pERK in MIA-PaCa-2 (KRAS-G12C) cell-line. The experiment can be described thus: Cell based pERK assay (HTRF), MIA-PaCa-2. As to conditions: MIA-PaCa-2 (KRAS-G12C) cells, 2 hours incubation, read-out: MIAPaCa2 pERK EC50. The method, then:
(§1) Compounds were tested in a 384-well assay format for their ability to inhibit cellular pERK in Kuramochi (WT KRAS), MIA-PaCa-2 (KRAS-G12C), ASPC-1 (KRAS G12D), and NCI-H441 (KRAS-G12V) cell-lines. Compounds were serially diluted (1:3) in DMSO. On day −1, 80 uL of cells were plated per well in the 384 well tissue-culture plates (Greiner: Cat #781080) to seed 5000 cells per wells of AsPC-1 or 7500 cells of MIA-PaCa-2, NCI-H441, and Kuramochi cell lines in RPMI (Corning: Cat #10-040-CM) with 10% fetal bovine serum (FBS) (HyClone: Cat #SH30071-03) and 1× penicillin-streptomycin-glutamate (PSG) (Corning: Cat #30-009-CI) for […] and Kuramochi cell lines and DMEM (Corning: Cat #15-018-CM) with […] and 1× PSG for MKA-PaCa-2 cell line. The plates were then incubated overnight at 37° C. and 5% CO2. On day 0, 400 nL of compound/well was added into the cell plates and mixed 5 times by pipetting using a Beckmann Biomek FX. The cell plates were then incubated for 2 hours at 37° C. and 5% CO2. HTRF Advanced Phospho-ERK1/2 ([…]) Detection Kits (PerkinElmer: Cat #64AERPEG) were used to prepare the lysis and detection solution according to manufacturer protocol. Following the 2 hour incubation, 70 μL of medium was aspirated from the plates and 10 uL of lysis and detection solution was added to the plates using a Biotek EL406 washer and dispenser. Plates were sealed and stored overnight at room temperature. HTRF ratio (665 nm/615 nm) was read by Envision multimode reader (PerkinElmer) the next day. The TR-FRET ratios were normalized to a positive (saturating concentration of known inhibitor) and negative (DMSO) control and plotted against the log of compound concentration. IC50 values were defined as the compound concentration that causes a […] in normalized signal and were calculated using a sigmoidal dose-response model to generate curve fits.

Experiment [2] deals with cellular pERK in NCI-H441 (KRAS-G12V) cell-line. The experiment can be described thus: Cell based pERK assay (HTRF), NCI-H441. As to conditions: NCI-H441 (KRAS-G12V) cells, 2 hours incubation. The method, then:
as §1

The subject of experiment [3] is cellular pERK in ASPC-1 (KRAS G12D) cell-line. The experiment can be described thus: Cell based pERK assay (HTRF), ASPC-1. Conditions: ASPC-1 (KRAS G12D) cells, 2 hours incubation. As for the experimental part:
as §1

The subject of experiment [4] is cellular pERK in Kuramochi (WT KRAS) cell-line. The experiment can be described thus: Cell based pERK assay (HTRF), Kuramochi. Conditions: Kuramochi (WT KRAS) cells, 2 hours incubation. The method, then: as §1

Read-outs that look alike come from different tables or passages of the source.

As to `C#Cc1c(F)ccc2cc(O)cc(-c3nc4c5c(nc(OC[C@@]67CCCN6C[C@H](F)C7)nc5c3F)N3CCCOC[C@@H]3C=C4)c12` [Example 6-19], the EC50 in experiment [1] (Homo sapiens) came to 0.00047 µM; in experiment [2] (Homo sapiens) it was 0.00115 µM; in experiment [3] (Homo sapiens, ASPC1), 0.00118 µM; in experiment [4] it was 0.00401 µM.
On the same counts, the results for `C#Cc1c(F)ccc2cc(N)cc(-c3nc4c5c(nc(OC[C@@]67CCCN6C[C@H](F)C7)nc5c3F)N3CCCOC[C@@H]3C[C@H]4C)c12` [Example 7-9] are 0.00904 µM, 0.0169 µM, 0.0549 µM and 0.00723 µM.
`CCc1c(F)ccc2cc(O)cc(-c3nc4c5c(nc(OC[C@@]67CCCN6C[C@H](F)C7)nc5c3F)N3CCCCC3(C)CC4)c12` (stereo partly drawn) [Example 14-1, 5-ethyl-6-fluoro-4-(1-fluoro-11-(((2R,7aS)-2-fluorotetrahydro-1H-pyrrolizin-7a(5H)-yl)methoxy)-5a-methyl-5,5a,6,7,8,9-hexahydro-4H-3,9a,10,12-tetraazabenzo[4,5]cyclohepta[1,2,3-de]naphthalen-2-yl)naphthalen-2-ol]: the half-maximal effective concentration (EC50) in experiment [1] is above 1 µM; in experiment [2], above 1 µM; in experiment [3] (read-out: AsPC1 pERK EC50), above 1 µM; in experiment [4], 0.517 µM.
Consider `C#Cc1c(F)ccc2cc(O)cc(-c3nc4c5c(nc(OC[C@@]67CCCN6C[C@@]6(CC6(F)F)C7)nc5c3F)N3CCCOC[C@@H]3CC4)c12` [Example 22-3], for which the EC50 in experiment [1] (Homo sapiens) amounted to 0.00047 µM; in experiment [2] (Homo sapiens) it was 0.00117 µM; in experiment [3] (Homo sapiens, ASPC1) it was 0.00375 µM; in experiment [4], 0.00255 µM.
On the same counts, the results for `C#Cc1c(F)ccc2cccc(-c3nc4c5c(nc(OC[C@@]67CCCN6C[C@H](F)C7)nc5c3F)N3CCCOC[C@H]3CC4)c12` [Example 6-4] are above 1 µM, above 1 µM, above 1 µM and above 1 µM.
Take `C#Cc1c(F)ccc2cc(O)cc(-c3nc4c5c(nc(OC[C@@]67CCCN6C[C@H](F)C7)nc5c3F)N3CCCOCC3C[C@@H]4O)c12` (some centres unmarked) [Example 22-5]: the EC50 in experiment [1] (Homo sapiens) was determined as 0.07 µM; in experiment [2] (Homo sapiens), 0.212 µM; in experiment [3] (Homo sapiens, ASPC1), 0.128 µM; in experiment [4], 0.0797 µM.
On the same counts, the results for `C#Cc1c(F)ccc2cc(O)cc(-c3nc4c5c(nc(OC[C@@]67CCCN6C[C@H](F)C7)nc5c3F)N3CCOCC[C@H]3CCC4)c12` (single isomer, unassigned) [Example 10-1] are 0.0184 µM, 0.0688 µM, 0.208 µM and 0.00855 µM.
On the same counts, the results for `C#Cc1c(F)ccc2cc(O)cc(-c3nc4c5c(nc(OC[C@@]67CCCN6C[C@H](F)C7)nc5c3F)N3CC(F)(F)COC[C@H]3CC4)c12` (single isomer, unassigned) [Example 17-1] are 0.00089 µM, 0.00768 µM, 0.0549 µM and 0.00295 µM.
With `C#Cc1c(F)ccc2cc(O)cc(-c3c(F)c4c5c(nc(OC[C@@]67CCCN6C[C@H](F)C7)nc5c3F)N3CCCOC[C@@H]3CC4)c12` (atropisomer, axis not shown) [Example 24-2, 4-((11R,14aS)-10,12-difluoro-8-(((2R,7aS)-2-fluorotetrahydro-1H-pyrrolizin-7a(5H)-yl)methoxy)-1,4,5,13,14,14a-hexahydro-3H-[1,4]oxazepino[4′,3′:1,7]azepino[2,3,4-de]quinazolin-11-yl)-5-ethynyl-6-fluoronaphthalen-2-ol], the EC50 in experiment [1] came to 0.00082 µM; in experiment [2] it was 0.00801 µM; in experiment [3] (read-out: AsPC1 pERK EC50) it was 0.00169 µM; in experiment [4], 0.00264 µM.
Consider `C#Cc1c(F)ccc2cc(O)cc(-c3nc4c5c(nc(O[C@@H](C)[C@@H]6CCCN6C)nc5c3F)N3CCCOC[C@@H]3CC4)c12` [Example 6-24], for which the EC50 is 0.448 µM in experiment [1] (Homo sapiens); 0.397 µM in experiment [2] (Homo sapiens); above 1 µM in experiment [3] (Homo sapiens, ASPC1); 0.0484 µM in experiment [4].
On to `C#Cc1c(F)ccc2cc(O)cc(-c3nc4c5c(nc(OC[C@@]67CCCN6C[C@H](F)C7)nc5c3F)N3CCCOCC3CC4)c12` (some centres unmarked) [Example 6-2], for which the concentration giving a half-maximal response (EC50) in experiment [1] (Homo sapiens) came out at 0.00101 µM; in experiment [2] (Homo sapiens), 0.00209 µM; in experiment [3] (Homo sapiens, ASPC1), 0.00374 µM; in experiment [4] it was 0.00446 µM.
On the same counts, the results for `C#Cc1c(F)ccc2cc(O)cc(-c3nc4c5c(nc(OC[C@@]67CCCN6C[C@H](F)C7)nc5c3F)N3CC5(COCC3CC4)OCCO5)c12` (some centres unmarked) [Example 6-16] are 0.265 µM, above 1 µM, above 1 µM and 0.0785 µM.
With `C#Cc1c(F)ccc2cc(O)cc(-c3c(F)c4c5c(nc(OC[C@@]67CCCN6C[C@H](F)C7)nc5c3F)N3CCCOC[C@@H]3CC4)c12` (atropisomer, axis not shown) [Example 24-1, 4-((11S,14a5)-10,12-difluoro-8-(((2R,7a5)-2-fluorotetrahydro-1H-pyrrolizin-7a(5H1)-yl)methoxy)-1,4,5,13,14,14a-hexahydro-3H-[1,4]oxazepino[4′,3′:1,7]azepino[2,3,4-de]quinazolin-11-yl)-5-ethynyl-6-fluoronaphthalen-2-ol], the concentration for a half-maximal effect (EC50) in experiment [1] stood at 0.0467 µM; in experiment [2] it was 0.0553 µM; in experiment [3] (read-out: AsPC1 pERK EC50) it was 0.085 µM; in experiment [4], 0.138 µM.
In the case of `C#Cc1c(F)ccc2cc(O)cc(-c3nc4c5c(nc(OC[C@@]67CCCN6C[C@H](F)C7)nc5c3F)N3CCCCCC3CC4)c12` (mixture of isomers) [Example 6-20], the EC50 came out at 0.011 µM in experiment [1] (Homo sapiens); 0.0862 µM in experiment [2] (Homo sapiens); 0.12 µM in experiment [3] (Homo sapiens, ASPC1); 0.00939 µM in experiment [4].
On the same counts, the results for `C#Cc1c(F)c(F)cc2cc(N)cc(-c3nc4c5c(nc(OCC67CCCN6CCC7)nc5c3F)N3CCCOC[C@@H]3CC4)c12` [Example 23-3] are 0.0203 µM, 0.0759 µM, 0.105 µM and 0.00754 µM.
With `C#Cc1c(F)ccc2cc(O)cc(-c3nc4c5c(nc(OC[C@@]67CCCN6C[C@H](F)C7)nc5c3F)N3CCCCC[C@H]3CC4)c12` [Example 12-1, 5-ethynyl-6-fluoro-4-((S)-1-fluoro-12-(((2R,7aS)-2-fluorotetrahydro-1H-pyrrolizin-7a(5H)-yl)methoxy)-4,5,5a,6,7,8,9,10-octahydro-3,10a,11,13-tetraazanaphtho[1,8-ab]heptalen-2-yl)naphthalen-2-ol], the EC50 in experiment [1] (Homo sapiens) is 0.682 µM; in experiment [2] (Homo sapiens) it was 0.916 µM; in experiment [3] (Homo sapiens, ASPC1), 0.931 µM; in experiment [4], 0.401 µM.
On the same counts, the results for `C#Cc1c(F)ccc2cc(N)cc(-c3nc4c5c(nc(OC[C@@]67CCCN6C[C@H](F)C7)nc5c3F)N3CCCOC[C@@H]3C[C@@H]4C)c12` [Example 7-10] are 0.218 µM, above 0.535 µM, above 0.697 µM and 0.208 µM.
On the same counts, the results for `C#Cc1c(F)c(F)cc2cc(N)cc(-c3nc4c5c(nc(OC[C@@]67CCCN6C[C@H](F)C7)nc5c3F)N3CCCOC[C@@H]3CC4)c12` [Example 23-1, 5-ethynyl-6,7-difluoro-4-((S)-1-fluoro-12-(((2R,7aS)-2-fluorotetrahydro-1H-pyrrolizin-7a(5H)-yl)methoxy)-4,5,5a,6,9,10-hexahydro-8H-7-oxa-3,10a,11,13-tetraazanaphtho[1,8-ab]heptalen-2-yl)naphthalen-2-amine] are 0.00803 µM, 0.00313 µM, 0.0144 µM and 0.00095 µM.
Turning to `CCc1c(F)ccc2cc(O)cc(-c3nc4c5c(nc(OC[C@@]67CCCN6C[C@H](F)C7)nc5c3F)N3CCCOCC3CC4)c12` (some centres unmarked) [Example 8-2], the EC50 in experiment [1] (Homo sapiens) is 0.0138 µM; in experiment [2] (Homo sapiens), 0.021 µM; in experiment [3] (Homo sapiens, ASPC1), 0.0236 µM; in experiment [4], 0.00804 µM.
On the same counts, the results for `C#Cc1c(F)ccc2cccc(-c3nc4c5c(nc(OC[C@@]67CCCN6[C@H](CF)CC7)nc5c3F)N3CCCOC[C@@H]3CC4)c12` [Example 6-10] are 0.28 µM, 0.46 µM, 0.706 µM and 0.289 µM.

Source of the values: patent US20240383922A1, “KRAS Modulating Compounds” (Gilead Sciences, Inc., priority 2023, published 2024).
